{"source": "patent US5786344A", "about": "“Camptothecin drug combinations and methods with reduced side effects” (priority 1995, dated 1998)", "assay": "Phase I pharmacokinetics of CPT-11, SN-38 and SN-38G in plasma/urine after 90 min iv infusion", "settings": "for \"Biliary ratio\" (median): AUC SN-38/SN-38G", "description": "All patients met the standard laboratory criteria including criteria for adequate organ function. Informed, written consent was obtained from all patients prior to their first dose of CPT-11. The drug was given in 500 cc normal saline by intravenous infusion over 90 minutes on a weekly basis for four doses in a sixweek cycle. […] A second cycle was given with the same dose and schedule used during cycle 1. […] Patients who experienced dose limiting neutropenia were eligible to receive G-CSF at 5 μg/kg/day according to the criteria defined below.\nTo determine drug and metabolite levels, heparinized blood samples obtained on the first cycle of therapy, were centrifuged and the plasma was stored at -70° C. until analysis. CPT (camptothecin, 1 μg/ml, obtained from the National Cancer Institute, Bethesda, Md.) was used as an internal standard. One hundred μl of plasma was extracted with 2 ml of methanol, centrifuged at 2500×g for 10 min and the supernatant was evaporated to dryness. Reconstitution was done with 200 μl of methanol containing 0.1% 10M HCL (pH~2.0). For the estimation of SN-38G, plasma samples were extracted as described above. Prior to reconstitution, the samples were incubated with 1000 U of glucuronidase (Sigma Chemical Co., St. Louis, Mo.) for 2 hours at 37° C.\nAnalysis was done using a C18 column (μBondapak, 10 μm, 3.9×300 mm; Waters Associates, Milford, Mass.) preceded by a Novapak C18 guard column. […] Detection was monitored by a Hitachi F1050 Fluorescence detector (Hitachi Instruments Inc., Naperville, Ill.) with a λex at 375 nm and λem at 566 nm. […] SN-38G concentrations were determined as the increase in SN-38 concentrations following incubation with glucuronidase.\nThe plasma concentration-time data of CPT-11, SN-38 and SN-38G were analyzed by non-compartmental analysis using PCNONLIN (SCI, Lexington, Ky.). The area under the plasma concentration-time curve (AUC) from time zero (predose) to the time of the last quantifiable concentration (AUCt) was calculated by the trapezoidal rule. The AUC extrapolated to time infinity (AUCt →.infin.) was estimated by dividing the last quantifiable concentration by the terminal rate constant obtained by the log-linear regression of the terminal elimination phase. The AUC was the summation of AUCt and AUCt→.infin.. Clearance (CL) was estimated as the ratio of the dose and AUC.\nThe present study employed this principle to obtain an estimate of SN-38 excreted in the bile. Since glucuronidation is the major pathway of elimination of SN-38, the fraction of SN-38 not conjugated would be primarily excreted in the bile. The net biliary concentration of SN-38 would then be a resultant of its formation and elimination. This concentration was expressed as the \"biliary ratio\" which was the ratio of AUC of SN-38 to SN-38G. To control for individual variability in the amount of available drug, the ratio was multiplied by the AUC of CPT-11 to obtain a \"biliary index\" of SN-38.\nThe nonparametric Mann-Whitney test was employed to test for differences in pharmacokinetic outcomes between two patient groups, defined by the worst severity of diarrhea experienced in the first two cycles of CPT-11 treatment. Statistical tests were performed in the Number Cruncher Statistical System (Dr. Jerry Hintz, Kaysville, Utah). A two-sided significance level of less than or equal to 0.05 was considered statistically significant.", "note": "Where “and” joins values, the source holds several entries; their conditions need not be identical. Equal values may be shown once.", "data": [{"smiles": "CCc1c2c(nc3ccc(OC(=O)N4CCC(N5CCCCC5)CC4)cc13)-c1cc3c(c(=O)n1C2)COC(=O)[C@]3(O)CC", "note": "[CPT-11, 7-ethyl-10-[4-(1-piperidino)-1-piperidino)carbonyloxycamptot hecin]", "values": [{"measurement": "\"biliary index\" (median)", "setting": "145 mg/m2, Grade 0-2 diarrhea, p=0.03", "result": "2275 and 2276"}, {"measurement": "\"biliary index\" (median)", "setting": "145 mg/m2, Grade 3-4 diarrhea, p=0.03", "result": 4747}, {"measurement": "\"Biliary ratio\" (median)", "setting": "145 mg/m^2, Grade 0-2 diarrhea, n = 5", "result": 0.27}, {"measurement": "\"biliary index\" (median)", "setting": "145 mg/m^2, Grade 0-2 diarrhea, n = 5, p 0.03", "result": 2276, "unit": "ng·h/mL"}, {"measurement": "\"Biliary ratio\" (median)", "setting": "145 mg/m^2, Grade 3-4 diarrhea, n = 5", "result": 0.53}, {"measurement": "\"biliary index\" (median)", "setting": "145 mg/m^2, Grade 3-4 diarrhea, n = 5, p 0.03", "result": 4747, "unit": "ng·h/mL"}, {"measurement": "\"biliary index\"", "setting": "4 of 5 patients with grade 3-4 diarrhea, 145 mg/m^2", "result": "above 4000"}, {"measurement": "effect of pretreatment with G-CSF on pharmacokinetics", "setting": "CPT-11 and its metabolites", "result": "no effect"}, {"measurement": "\"biliary index\" (median)", "setting": "all dose levels, grade 0-2 diarrhea, n=12, p=0.0004", "result": 2228}, {"measurement": "\"biliary index\" (median)", "setting": "all dose levels, grade 3-4 diarrhea, n=9, p=0.0004", "result": 5499}, {"measurement": "increase of AUC from 100 to 175 mg/m^2", "setting": "in vivo", "result": 2.6, "unit": "fold"}, {"measurement": "interpatient variability of AUC (percent coefficient of variation)", "setting": "in vivo", "result": "17-57%"}, {"measurement": "patients with grade 3-4 diarrhea having index estimates above 4000", "setting": "in vivo", "result": "about 90%"}, {"measurement": "\"biliary index\"", "setting": "one patient, grade 3-4 diarrhea, c diff+", "result": 3028}]}]}
